Assay results published in ChEMBL document CHEMBL4765416, “Design, synthesis, and evaluation of pyrrolidine based CXCR4 antagonists with in vivo anti-tumor metastatic activity” (Eur J Med Chem, 2020).
Each block holds one compound with its values, some of them ahead of it. Calls of active or inactive are those of the source. The calls are words filed in the database; no cut-off is given here.

Assays:
[1] = Intrinsic clearance in rat liver microsomes at 1 uM peincubated for 10 mins followed by NADPH addition and measured 60 mins by LC-MS/MS analysis; type: ADME, Microsome; conditions: time 70 min, read-out: CLH
[2] = Half life in rat liver microsomes at 1 uM peincubated for 10 mins followed by NADPH addition and measured 60 mins by LC-MS/MS analysis; type: ADME, Microsome; conditions: time 70 min
Lewis lung carcinoma = test: Antimetastatic activity against RFP-labelled LL2 cells allografted in C57BL6 mouse assessed as reduction in metastatic lung nodules at 70 mg/kg, ip treated 30 mins prior to tumor implantation followed by redosing at 3 hrs post tumor implantation and subsequent daily dosing for 18 days by fluorescence assay; type: functional, organism-based; conditions: time 18.0 day
[3] = target: T1, C-X-C chemokine receptor type 4 (Homo sapiens, UniProt P61073); test: Antagonist activity at CXCR4 in human CD4-positive T cells assessed as inhibition of CXCL12-induced cytosolic calcium flux preincubated for 20 mins followed by CXCL12 addition by calcium 4 dye based FLIPR TETRA analysis; type: functional, cell-based, T cell
T1 sequence (P61073 whole entry): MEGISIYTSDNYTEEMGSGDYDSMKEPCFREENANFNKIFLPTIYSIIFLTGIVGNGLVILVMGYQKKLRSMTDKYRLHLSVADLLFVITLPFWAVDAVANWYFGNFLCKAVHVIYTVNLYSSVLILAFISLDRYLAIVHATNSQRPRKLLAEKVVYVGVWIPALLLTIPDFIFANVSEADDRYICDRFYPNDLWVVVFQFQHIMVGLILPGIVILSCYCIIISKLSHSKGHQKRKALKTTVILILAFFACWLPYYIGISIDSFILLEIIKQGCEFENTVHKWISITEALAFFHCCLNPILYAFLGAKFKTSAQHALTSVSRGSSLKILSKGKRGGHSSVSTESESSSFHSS

[4] = Half life in human liver microsomes at 1 uM peincubated for 10 mins followed by NADPH addition and measured 60 mins by LC-MS/MS analysis; type: ADME, Microsome; conditions: time 70 min
MDA-MB-231 = test: Cytotoxicity against human MDA-MB-231 cells assessed as reduction in cell proliferation up to 1000 nM by ATP-based celltiter-glo luminescent assay
[5] = target: T1, C-X-C chemokine receptor type 4; test: Antagonist activity at CXCR4 in human MDA-MB-231 cells assessed as inhibition of CXCL12-induced cell migration at 100 nM measured after 24 hrs by crystal violet staining based matrigel invasion assay; conditions: filed as antagonist
[6] = Protein binding in rat plasma at 1 uM; type: ADME, cell-free; conditions: read-out: PPB (converted)
MEF = test: Cytotoxicity against MEF cells assessed as reduction in cell proliferation up to 1000 nM by ATP-based celltiter-glo luminescent assay; conditions: mouse
[7] = Intrinsic clearance in human liver microsomes at 1 uM peincubated for 10 mins followed by NADPH addition and measured 60 mins by LC-MS/MS analysis; type: ADME, Microsome; conditions: time 70 min, read-out: CLH
[8] = target: T2, C-X-C chemokine receptor type 1 (Homo sapiens) (UniProt P25024); test: Antagonist activity at CXCR1 (unknown origin) expressed in HEK293 cells assessed as suppression of IL-8-induced inhibition of forskolin-induced cAMP formation up to 10 uM preincubated for 15 mins followed by forskolin and IL-8 stimulation and measured after 15 mins by cAMP-d2 and Eu-Anti-cAMP based fluorescence assay; type: functional, cell-based; conditions: dose microM <=10, time 30.0 min
T2 sequence (whole entry): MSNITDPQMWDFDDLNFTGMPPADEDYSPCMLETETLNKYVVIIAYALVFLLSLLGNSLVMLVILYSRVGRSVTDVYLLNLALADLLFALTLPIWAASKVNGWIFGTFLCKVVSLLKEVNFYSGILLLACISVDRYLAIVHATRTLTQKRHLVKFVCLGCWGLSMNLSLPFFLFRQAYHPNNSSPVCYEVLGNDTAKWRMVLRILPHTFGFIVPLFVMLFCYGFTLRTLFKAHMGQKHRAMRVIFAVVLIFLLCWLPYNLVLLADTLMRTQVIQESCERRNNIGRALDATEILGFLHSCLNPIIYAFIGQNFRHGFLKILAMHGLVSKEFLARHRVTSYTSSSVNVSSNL

L929 = test: Cytotoxicity against mouse L929 cells assessed as reduction in cell proliferation up to 1000 nM by ATP-based celltiter-glo luminescent assay
CYP2D6 = CYP2D6 (Homo sapiens, UniProt P10635); test: Inhibition of CYP2D6 in human liver microsomes at 10 uM using dextromethorphan as substrate preincubated for 10 mins followed by NADPH addition measured after 10 mins by LC-MS/MS analysis relative to control; type: ADME; conditions: probe dextromethorphan, time 20 min
Sequence of CYP2D6 (P10635 whole entry): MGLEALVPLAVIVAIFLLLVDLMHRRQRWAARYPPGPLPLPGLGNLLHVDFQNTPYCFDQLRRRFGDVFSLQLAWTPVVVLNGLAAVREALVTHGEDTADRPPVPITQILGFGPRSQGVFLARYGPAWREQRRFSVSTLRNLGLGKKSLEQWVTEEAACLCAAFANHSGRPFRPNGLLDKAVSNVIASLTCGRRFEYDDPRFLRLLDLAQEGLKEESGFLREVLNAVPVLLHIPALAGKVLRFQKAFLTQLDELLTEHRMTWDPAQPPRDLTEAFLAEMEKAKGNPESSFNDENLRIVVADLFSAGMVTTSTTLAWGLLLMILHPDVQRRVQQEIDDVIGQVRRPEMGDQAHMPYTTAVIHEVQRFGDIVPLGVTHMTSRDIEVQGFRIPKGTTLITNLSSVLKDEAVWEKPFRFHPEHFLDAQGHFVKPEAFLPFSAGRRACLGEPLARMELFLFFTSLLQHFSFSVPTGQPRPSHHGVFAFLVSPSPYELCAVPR

CYP1A2 = target: T3, CYP1A2 (Homo sapiens, UniProt P05177); test: Inhibition of CYP1A2 in human liver microsomes at 10 uM using phenacetin as substrate preincubated for 10 mins followed by NADPH addition measured after 10 mins by LC-MS/MS analysis relative to control; type: ADME; conditions: probe phenacetin, time 20 min
T3 sequence (P05177 whole entry): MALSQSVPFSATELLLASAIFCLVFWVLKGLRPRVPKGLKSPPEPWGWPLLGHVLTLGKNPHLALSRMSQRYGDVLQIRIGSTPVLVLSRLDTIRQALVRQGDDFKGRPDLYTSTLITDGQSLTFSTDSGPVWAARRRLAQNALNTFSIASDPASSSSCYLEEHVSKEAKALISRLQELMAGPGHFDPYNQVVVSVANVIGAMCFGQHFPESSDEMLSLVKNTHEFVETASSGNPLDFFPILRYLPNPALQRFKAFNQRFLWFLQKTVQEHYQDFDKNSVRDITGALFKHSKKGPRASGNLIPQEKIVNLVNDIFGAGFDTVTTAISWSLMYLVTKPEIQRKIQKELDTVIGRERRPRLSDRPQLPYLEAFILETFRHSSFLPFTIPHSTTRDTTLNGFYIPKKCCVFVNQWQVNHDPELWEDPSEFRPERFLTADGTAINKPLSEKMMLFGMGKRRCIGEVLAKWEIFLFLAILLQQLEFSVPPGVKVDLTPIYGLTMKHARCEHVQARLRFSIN

CYP3A4 [9] = target: T4, CYP3A4 (Homo sapiens, UniProt P08684); test: Inhibition of CYP3A4 in human liver microsomes at 10 uM using midazolam as substrate preincubated for 10 mins followed by NADPH addition measured after 10 mins by LC-MS/MS analysis relative to control; type: ADME; conditions: probe midazolam, time 20 min
T4 sequence (P08684 whole entry): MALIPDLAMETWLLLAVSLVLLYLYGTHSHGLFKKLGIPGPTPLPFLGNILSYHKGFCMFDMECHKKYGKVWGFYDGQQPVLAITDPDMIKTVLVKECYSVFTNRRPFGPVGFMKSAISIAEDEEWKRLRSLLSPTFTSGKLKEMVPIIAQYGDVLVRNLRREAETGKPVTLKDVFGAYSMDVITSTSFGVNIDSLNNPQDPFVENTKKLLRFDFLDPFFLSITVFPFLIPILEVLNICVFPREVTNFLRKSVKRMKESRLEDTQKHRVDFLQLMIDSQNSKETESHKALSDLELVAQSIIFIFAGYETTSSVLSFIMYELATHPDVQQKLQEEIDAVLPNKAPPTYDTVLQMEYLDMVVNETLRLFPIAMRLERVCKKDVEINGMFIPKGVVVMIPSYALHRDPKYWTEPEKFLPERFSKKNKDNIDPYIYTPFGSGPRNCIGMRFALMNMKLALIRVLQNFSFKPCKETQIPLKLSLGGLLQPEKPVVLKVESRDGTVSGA

[10] = target: Voltage-gated inwardly rectifying potassium channel KCNH2 (Homo sapiens, UniProt Q12809); test: Inhibition of human ERG stably expressed in CHO cells at -80 mV holding potential measured after 4 mins by Qpatch electrophysiological assay; type: cell-based
Sequence of Voltage-gated inwardly rectifying potassium channel KCNH2 (Q12809 whole entry): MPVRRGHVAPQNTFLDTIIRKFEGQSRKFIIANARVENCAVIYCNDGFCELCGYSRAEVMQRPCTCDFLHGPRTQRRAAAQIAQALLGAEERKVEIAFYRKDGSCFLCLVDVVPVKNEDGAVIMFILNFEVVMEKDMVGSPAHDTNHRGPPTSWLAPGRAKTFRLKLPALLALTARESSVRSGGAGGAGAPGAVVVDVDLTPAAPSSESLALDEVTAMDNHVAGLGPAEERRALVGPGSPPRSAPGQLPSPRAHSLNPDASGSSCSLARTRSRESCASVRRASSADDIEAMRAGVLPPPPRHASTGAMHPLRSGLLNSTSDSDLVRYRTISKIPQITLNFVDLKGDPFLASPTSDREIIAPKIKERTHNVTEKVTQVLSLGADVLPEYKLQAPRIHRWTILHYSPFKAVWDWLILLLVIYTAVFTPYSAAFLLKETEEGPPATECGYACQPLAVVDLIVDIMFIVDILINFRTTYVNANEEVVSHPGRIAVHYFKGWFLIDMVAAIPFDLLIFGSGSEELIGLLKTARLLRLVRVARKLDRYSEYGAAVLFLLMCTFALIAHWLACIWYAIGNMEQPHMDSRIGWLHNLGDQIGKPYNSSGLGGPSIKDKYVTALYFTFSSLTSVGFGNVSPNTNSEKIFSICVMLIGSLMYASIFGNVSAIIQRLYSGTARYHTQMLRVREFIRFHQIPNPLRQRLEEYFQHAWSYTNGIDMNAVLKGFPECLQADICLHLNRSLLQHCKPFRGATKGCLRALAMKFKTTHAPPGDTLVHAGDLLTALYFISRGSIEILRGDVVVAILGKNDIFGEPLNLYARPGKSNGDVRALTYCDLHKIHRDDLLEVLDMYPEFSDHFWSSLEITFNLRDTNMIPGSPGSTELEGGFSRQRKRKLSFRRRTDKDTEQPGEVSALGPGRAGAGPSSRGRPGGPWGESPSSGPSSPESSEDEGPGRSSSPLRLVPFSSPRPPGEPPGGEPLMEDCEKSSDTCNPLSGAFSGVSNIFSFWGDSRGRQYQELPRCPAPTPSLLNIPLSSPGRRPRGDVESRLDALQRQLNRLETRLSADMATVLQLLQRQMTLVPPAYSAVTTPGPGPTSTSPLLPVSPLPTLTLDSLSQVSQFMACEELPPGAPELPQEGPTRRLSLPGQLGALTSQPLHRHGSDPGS

[11] = Protein binding in mouse plasma at 1 uM; type: ADME, cell-free; conditions: read-out: PPB (converted)
CYP2C9 = CYP2C9 (Homo sapiens, UniProt P11712); test: Inhibition of CYP2C9 in human liver microsomes at 10 uM using tolbutamide as substrate preincubated for 10 mins followed by NADPH addition measured after 10 mins by LC-MS/MS analysis relative to control; type: ADME; conditions: probe tolbutamide
Sequence of CYP2C9 (P11712 whole entry): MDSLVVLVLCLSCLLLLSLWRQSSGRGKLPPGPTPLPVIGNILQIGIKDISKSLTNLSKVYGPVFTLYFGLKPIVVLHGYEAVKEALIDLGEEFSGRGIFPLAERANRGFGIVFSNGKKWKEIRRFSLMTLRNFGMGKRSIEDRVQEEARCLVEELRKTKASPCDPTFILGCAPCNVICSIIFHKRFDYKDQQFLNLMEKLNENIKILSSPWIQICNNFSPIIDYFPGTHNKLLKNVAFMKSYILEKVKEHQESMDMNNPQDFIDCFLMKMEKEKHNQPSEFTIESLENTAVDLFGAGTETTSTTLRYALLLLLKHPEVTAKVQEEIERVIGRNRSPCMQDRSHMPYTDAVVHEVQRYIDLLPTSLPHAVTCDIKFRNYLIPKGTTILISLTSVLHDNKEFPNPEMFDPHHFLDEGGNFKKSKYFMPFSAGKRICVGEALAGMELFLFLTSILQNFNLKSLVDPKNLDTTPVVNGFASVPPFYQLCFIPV

[12] = Dissociation constant, basic pKa of compound by titration method; type: physicochemical
[13] = Protein binding in human plasma at 1 uM; type: ADME, cell-free; conditions: read-out: PPB (converted)
CYP2C19 = CYP2C19 (Homo sapiens, UniProt P33261); test: Inhibition of CYP2C19 in human liver microsomes at 10 uM using S-mephenytoin as substrate preincubated for 10 mins followed by NADPH addition measured after 10 mins by LC-MS/MS analysis relative to control; type: ADME; conditions: probe S-mephenytoin, time 20 min
Sequence of CYP2C19 (P33261 whole entry): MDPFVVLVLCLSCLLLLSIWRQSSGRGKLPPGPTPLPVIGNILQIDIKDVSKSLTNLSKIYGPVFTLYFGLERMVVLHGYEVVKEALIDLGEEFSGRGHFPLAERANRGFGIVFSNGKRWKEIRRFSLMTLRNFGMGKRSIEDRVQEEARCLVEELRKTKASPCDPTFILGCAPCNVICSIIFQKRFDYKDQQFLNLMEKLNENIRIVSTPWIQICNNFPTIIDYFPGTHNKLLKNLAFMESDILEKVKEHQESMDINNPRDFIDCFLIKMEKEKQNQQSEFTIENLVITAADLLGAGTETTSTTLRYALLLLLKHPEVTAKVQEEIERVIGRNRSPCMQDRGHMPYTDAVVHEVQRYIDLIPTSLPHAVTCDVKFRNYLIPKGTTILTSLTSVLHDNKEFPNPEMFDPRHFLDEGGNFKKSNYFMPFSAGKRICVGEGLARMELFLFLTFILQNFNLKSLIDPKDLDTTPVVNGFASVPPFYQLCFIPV

[14] = Cytotoxicity against […] Hepa1-6 cells assessed as reduction in cell proliferation up to 1000 nM by ATP-based celltiter-glo luminescent assay
CYP3A4 [15] = target: T4, CYP3A4; test: Inhibition of CYP3A4 in human liver microsomes at 10 uM using testosterone as substrate preincubated for 10 mins followed by NADPH addition measured after 10 mins by LC-MS/MS analysis relative to control; type: ADME; conditions: probe testosterone, time 20 min
[16] = target: T1, C-X-C chemokine receptor type 4; test: Inhibition of APC-conjugated anti-human CXCR4 clone 12G5 binding to CXCR4 in human HPBALL cells measured after 3 hrs by FACS analysis; type: cell-based
[17] = 1-Octanol/water partition coefficient, log P of compound at pH 7.4 measured after 24 hrs by shake flask method; type: physicochemical
[18] = target: T5, C-C chemokine receptor type 6 (Homo sapiens) (UniProt P51684); test: Antagonist activity at CCR6 in human CD4-positive T cells assessed as inhibition of CCL20-induced cytosolic calcium flux up to 10 uM by calcium 4 dye based FLIPR TETRA analysis; type: functional; conditions: T cell, dose microM <=10
T5 sequence (whole entry): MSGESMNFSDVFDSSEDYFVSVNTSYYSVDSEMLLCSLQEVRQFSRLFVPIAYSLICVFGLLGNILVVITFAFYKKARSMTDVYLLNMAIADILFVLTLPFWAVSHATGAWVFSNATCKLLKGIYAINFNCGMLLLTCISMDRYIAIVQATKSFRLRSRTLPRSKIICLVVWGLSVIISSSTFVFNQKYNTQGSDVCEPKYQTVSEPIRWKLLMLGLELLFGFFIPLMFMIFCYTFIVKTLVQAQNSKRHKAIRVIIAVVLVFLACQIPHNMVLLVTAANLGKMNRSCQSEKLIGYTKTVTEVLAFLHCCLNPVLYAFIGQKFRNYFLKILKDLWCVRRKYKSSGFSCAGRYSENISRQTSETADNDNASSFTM

CLint scaled at 1 µM [1]: 1080 mL/min/kg
half-life at 1 µM [2]: 2.31 min
Compound: Cc1nc(CN(C)C2CCCc3cccnc32)c(F)c(N2CCN(C)CC2)n1 (stereo unspecified)

CLint scaled at 1 µM [1]: 1640 mL/min/kg
half-life at 1 µM [2]: 1.51 min
Compound: Cc1nc(CN(C)C2CCCc3cccnc32)c(C#N)c(N2CCN(C)CC2)n1 (stereo unspecified)

CLint scaled at 1 µM [1]: 2440 mL/min/kg
half-life at 1 µM [2]: 1.02 min
Compound: CN1CCN(c2cc(CN(C)C3CCCc4cccnc43)nc(C3CC3)n2)CC1 (stereo unspecified)

IC50 [3]: 0.25 nM
half-life at 1 µM [4]: 26.2 min
inhibition [5]: Active
fraction unbound at 1 µM [6]: 0.56
CLint scaled at 1 µM [7]: 66 mL/min/kg
inhibition [8]: inactive
inhibition at 10 min, 10 µM (CYP2D6): -5%
inhibition at 10 min, 10 µM (CYP1A2): -6%
inhibition at 10 min, 10 µM (CYP3A4 [9]): 7%
CLint scaled at 1 µM [1]: 123 mL/min/kg
fraction unbound at 1 µM [11]: 0.67
inhibition at 10 min, 10 µM (CYP2C9): 1%
pKa [12]: 8.2
fraction unbound at 1 µM [13]: 0.05
inhibition at 10 min, 10 µM (CYP2C19): 11%
half-life at 1 µM [2]: 20.2 min
inhibition at 10 min, 10 µM (CYP3A4 [15]): -4%
IC50 [16]: 79 nM
logD at 24 h [17]: 1.12
inhibition [18]: inactive
Compound: Cc1nc(CN2CCC[C@H]2c2ncccc2C)cc(N2CCN(C)CC2)n1
Activity (Lewis lung carcinoma): Active
Activity (MDA-MB-231): Non-Toxic
Activity (MEF): Non-Toxic
Activity (L929): Non-Toxic
IC50 [10]: > 30 µM
Activity [14]: Non-Toxic

CLint scaled at 1 µM [1]: 1280 mL/min/kg
half-life at 1 µM [2]: 1.95 min
Compound: CCN(Cc1cc(N2CCN(C)CC2)nc(C)n1)C1CCCc2cccnc21 (stereo unspecified)

IC50 [3]: 13 nM
Compound: Cc1nc(CN2CCC[C@H]2c2ncccc2C)cc(N2CCC(N(C)C)CC2)n1

IC50 [3]: 0.4 nM
Compound: Cc1nc(CN2CCC[C@H]2c2ncccc2C)cc(N2CCCN(C)CC2)n1

CLint scaled at 1 µM [1]: 1130 mL/min/kg
half-life at 1 µM [2]: 2.2 min
Compound: COc1nc(CN(C)C2CCCc3cccnc32)cc(N2CCN(C)CC2)n1 (stereo unspecified)

IC50 [16]: 620 nM
Compound: Cc1nc(CN2CCCCC2c2ccccn2)cc(N2CCN(C)CC2)n1 (stereo unspecified)

IC50 [16]: > 10000 nM
Compound: Cc1nc(CN2CCC[C@@H]2c2ccccn2)cc(N2CCN(C)CC2)n1

CLint scaled at 1 µM [1]: 1550 mL/min/kg
half-life at 1 µM [2]: 1.6 min
Compound: Cc1nc(CN(C)[C@H]2CCCc3cccnc32)cc(N2CCN(C)[C@@H](C)C2)n1

IC50 [3]: 2.7 nM
IC50 [16]: 220 nM
Compound: Cc1nc(CN2CCC[C@H]2c2ccccn2)cc(N2CCN(C)CC2)n1

CLint scaled at 1 µM [1]: 2180 mL/min/kg
half-life at 1 µM [2]: 1.14 min
Compound: CCN1CCN(c2cc(CN(C)[C@H]3CCCc4cccnc43)nc(C)n2)CC1

inhibition [5]: Active
Compound: c1cc(CN2CCCNCCNCCCNCC2)ccc1CN1CCCNCCNCCCNCC1

IC50 [16]: 1550 nM
Compound: Cc1nc(CN2CCC(C)C2c2ccccn2)cc(N2CCN(C)CC2)n1 (stereo unspecified)

CLint scaled at 1 µM [1]: > 497 mL/min/kg
half-life at 1 µM [2]: < 1 min
Compound: Cc1nc(CN(C)[C@H]2CCCc3cccnc32)cc(N2CCN3CCC[C@H]3C2)n1

IC50 [16]: 319 nM
Compound: Cc1nc(CN2CCCC2c2ccccn2)cc(N2CCN(C)CC2)n1 (stereo unspecified)

CLint scaled at 1 µM [1]: 767 mL/min/kg
half-life at 1 µM [2]: 3.24 min
Compound: CN1CCN(c2cc(CN(C)C3CCCc4cccnc43)nc(N)n2)CC1 (stereo unspecified)

IC50 [16]: 216 nM
Compound: Cc1ccnc([C@@H]2CCCN2Cc2cc(N3CCN(C)CC3)nc(C)n2)c1

CLint scaled at 1 µM [1]: 651 mL/min/kg
half-life at 1 µM [2]: 3.82 min
Compound: CN1CCN(c2cccc3nc(CN(C)[C@H]4CCCc5cccnc54)c(CO)n23)CC1

IC50 [3]: 4.9 nM
Compound: Cc1ccc([C@@H]2CCCN2Cc2cc(N3CCN(C)CC3)nc(C)n2)nc1

CLint scaled at 1 µM [1]: > 497 mL/min/kg
half-life at 1 µM [2]: < 1 min
Compound: Cc1nc(CN(C)[C@H]2CCCc3cccnc32)cc(N2C[C@@H](C)N(C)[C@@H](C)C2)n1

CLint scaled at 1 µM [1]: > 497 mL/min/kg
half-life at 1 µM [2]: < 1 min
Compound: Cc1nc(CN(C)[C@H]2CCCc3cccnc32)cc(N2CCN(C)[C@H](C)C2)n1

CLint scaled at 1 µM [1]: 1570 mL/min/kg
half-life at 1 µM [2]: 1.59 min
Compound: Cc1nc(CN(C)[C@H]2CCCc3cccnc32)cc(N2CCN(C)CC2)n1

IC50 [16]: 2390 nM
Compound: Cc1cccc([C@@H]2CCCN2Cc2cc(N3CCN(C)CC3)nc(C)n2)n1

CLint scaled at 1 µM [1]: 2090 mL/min/kg
half-life at 1 µM [2]: 1.19 min
Compound: CCc1nc(CN(C)C2CCCc3cccnc32)cc(N2CCN(C)CC2)n1 (stereo unspecified)
